Tests used:
recombinant human HDAC6 = recombinant human HDAC6 (Homo sapiens (Human), UniProt Q9UBN7); experiment: Enzymatic screening, HDAC6 inhibition (fluorogenic FdL_G substrate); assay type: biochemical
Procedure, shortened: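 Enzyme was preincubated with compound (8 doses, triplicate, 1% DMSO) in 25 mM Tris-HCl pH 8, 130 mM NaCl, 0.05% Tween-20, 10% glycerol, with BSA. A FLUOR DE LYS-Green substrate was then added, and fluorescence was read after developer plus 2 μM TSA.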

[1] = Stability to Phase I metabolism in human S9 liver fraction; settings: after 90 minutes, 37° C.
HDAC2 = HDAC2 (Homo sapiens (Human), UniProt Q92769); experiment: Enzymatic screening, HDAC2 inhibition; assay type: biochemical
Procedure: (§1) For each test compound, 100× concentrated DMSO solutions at 8 doses were prepared and then diluted in assay buffer (25 mM Tris-HCl, pH 8, 130 mM NaCl, 0.05% Tween-20, 10% Glycerol) to obtain 5× concentrated solutions in relation to the final concentrations (typical final concentration range—6.4-200000 nM or 0.18-50000 nM, final DMSO content—1%). Then 10 μL solution of each test compound concentration were placed on a 96-well plate in triplicate and 15 μL of 3.33× concentrated enzyme solution in the assay buffer containing 3.33× concentrated BSA (final BSA concentration—2 mg/mL for HDAC4, HDAC5 and HDAC9 or 1 mg/mL for other isoforms) and in the case of HDAC6-3.33× concentrated TCEP (final TCEP concentration—200 μM) were added to each well. After a period of preincubation (incubation times and temperatures vary for different isoforms and are shown in table 1) 25 μL of solution containing the substrate were added. As substrate, FLUOR DE LYS® deacetylase substrate (Enzo Life Sciences, cat: BML-KI104, FdL), FLUOR DE LYS®-Green substrate (Enzo Life Sciences, cat: BML-KI572, FdL_G) or Boc-Lys(Tfa)-AMC (Bachem, cat: 4060676.005, Tfal)—2× concentrated solution in assay buffer were used. Following a reaction period (reaction times and temperatures vary for different isoforms and are reported in Table 1), 50 μL of the development solution consisting of concentrate FLUOR DE LYS® developer I (Enzo Life Sciences, ca: BML-KI105), diluted 200 times in buffer (50 mM Tris-HCl, pH 8, 137 mM NaCl, 2.7 mM KCl, 1 mM MgCl2) plus 2 μM TSA was added and, after 25 minutes at room temperature in the dark, using the Victor 1420 Multilabel Counter Perkin Elmer Wallac instrument, the fluorescence reading was carried out.

[2] = Stability in human plasma; settings: after 4 hours, 37° C.
Procedure: (§2) In order to evaluate the stability to circulating enzymes, test compounds were incubated in human and rat plasma at 37° C. in a thermostated oscillating bath. Each test compound was incubated at μM concentration (50 μM when the samples were analysed by UV/HPLC, 1 or 2 μM when the samples were analysed by LC-MS/MS) for 0, 15, 30 minutes and 1, 2 and 4 hours. The reaction was stopped placing samples on ice bath and adding acidified acetonitrile. After centrifugation (10 minutes at 14000 rpm) an aliquot of the supernatant was diluted with water, filtered with 0.45 μm regenerated cellulose syringe filters and injected in HPLC-UV or in LC-MS/MS. The percentage of the remaining amount at the various incubation times with respect to the initial amount were calculated. The half-life in plasma was also calculated.

HDAC11 = HDAC11 (Homo sapiens (Human), UniProt Q96DB2); experiment: Enzymatic screening, HDAC11 inhibition; assay type: biochemical
Procedure: as §1

HDAC3 = HDAC3 (Homo sapiens (Human), UniProt O15379); experiment: Enzymatic screening, HDAC3 inhibition; assay type: biochemical
Procedure: as §1

[3] = test system: α-tubulin acetylation in 697 cell line; experiment: In vitro α-tubulin acetylation in 697 cell line (ELISA); assay type: cell-based; settings: 16 hours, read-out: fold increase @ 1 uM TubAc (ratio of acetylated tubulin and total tubulin towards control)
Procedure: The in vitro α-tubulin acetylation determination was evaluated on B 697 promyelocytic cell line.
The test molecules were diluted from 20 mM stock solution in DMSO with RPMI 10% FCS+0.01% DMSO medium at 20× concentration compared to the final concentration, added to the cells (15×10^6 cells in a total volume of 30 mL in RPMI medium 10% FCS+0.01% DMSO) to obtain the final concentrations of 1000, 333, 111, 37 nM and incubated at 37° C., 5% CO2 for 16 hours.
At the end of the incubation period, 5×10^6 cells were taken from each sample, centrifuged for 5 minutes at 1100 rpm and washed in 0.9% NaCl at 4° C. The resulting pellet was lysed by treating at 4° C. for 30 minutes with 150 μl of Complete Lysis-M buffer containing protease inhibitors (Complete Lysis-M Roche+Complete Tablets, Mini Easypack, cat: 4719956001) and phosphatase inhibitor cocktails (PhosStop Easypack, Roche, cat: 4906837001), then centrifuged 10 minutes at 14,000 rpm (20817×g). 0.3 μg of supernatant (total protein extract) were diluted in 100 μl of 1×PBS and immobilized in Maxisorp F96 NUN-IMMUNO Plate (Nunc MaxiSorp flat-bottom, Nunc, cat: 442404) at room temperature overnight. Plates were washed twice with Wash Buffer (PBS1×+0.005% tween 20) and saturated for 1 hour at room temperature with 300 μL of 1×PBS containing 10% FCS. After washing twice with Wash Buffer, the plates were incubated for two hours at room temperature in the presence of anti-acetylated-α-tubulin antibody (Monoclonal Anti-acetylated-tubulin clone 6-11B-1, mouse ascites fluid, Sigma, cat: T6793), 100 μl/well diluted 1:1000 in 1×PBS containing 10% FCS) or with total anti-α-tubulin antibody (Monoclonal Anti-alpha-tubulin produced in mouse, Sigma, cat: T6074). Following washing of the pates 5 times with Wash Buffer the secondary antibody conjugated with the enzyme HRP (Goat anti-Mouse IgG, IgM, IgA (H+L), Thermo Fisher Scientific, cat: A10668), diluted 1:1000 in 1×PBS+10% FBS was added at the volume of 100 μl/well.
After washing 4 times, 100 μl/well of TMB substrate kit was added for 10 minutes at room temperature in the dark. The reaction was stopped by adding 50 μl of 2N H2SO4. The plates were read at Multiskan Spectrum spectrophotometer at a wavelength of 450 nm.
The degree of acetylation was calculated by dividing the absorbance obtained for acetylated α-tubulin by the absorbance of total tubulin.
The results of tubulin acetylation, expressed as fold increase of ratio of acetylated α-tubulin/total α-tubulin, of each sample relative to the control sample (untreated) are summarized in table 6.

HDAC9 = HDAC9 (Homo sapiens (Human), UniProt Q9UKV0); experiment: Enzymatic screening, HDAC9 inhibition; assay type: biochemical
Procedure: as §1

HDAC8 = HDAC8 (Homo sapiens (Human), UniProt Q9BY41); experiment: Enzymatic screening, HDAC8 inhibition; assay type: biochemical
Procedure: as §1

HDAC7 = HDAC7 (Homo sapiens (Human), UniProt Q8WUI4); experiment: Enzymatic screening, HDAC7 inhibition; assay type: biochemical
Procedure: as §1

[4] = Stability to Phase I metabolism in rat S9 liver fraction; settings: after 90 minutes, 37° C.
HDAC4 = HDAC4 (Homo sapiens (Human), UniProt P56524); experiment: Enzymatic screening, HDAC4 inhibition; assay type: biochemical
Procedure: as §1

HDAC10 = HDAC10 (Homo sapiens (Human), UniProt Q969S8); experiment: Enzymatic screening, HDAC10 inhibition; assay type: biochemical
Procedure: as §1

recombinant human HDAC1 = recombinant human HDAC1 (Homo sapiens (Human), UniProt Q13547); experiment: Enzymatic screening, HDAC1 inhibition (fluorogenic FdL_G substrate); assay type: biochemical
Procedure, shortened: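 Recombinant human HDAC1 inhibition was measured fluorometrically using the FLUOR DE LYS-Green (FdL_G) substrate. Compounds at 8 doses (1% DMSO final) in Tris-HCl pH 8 buffer with NaCl, Tween-20 and glycerol were preincubated in triplicate with enzyme and 1 mg/mL BSA, then given substrate. Developer I plus 2 μM TSA was added, and fluorescence read after 25 minutes in the dark.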

Stability in rat plasma = settings: after 4 hours, 37° C.
Procedure: as §2

HDAC5 = HDAC5 (Homo sapiens (Human), UniProt Q9UQL6); experiment: Enzymatic screening, HDAC5 inhibition; assay type: biochemical
Procedure: as §1

Chain of HDAC8 (Q9BY41 whole entry): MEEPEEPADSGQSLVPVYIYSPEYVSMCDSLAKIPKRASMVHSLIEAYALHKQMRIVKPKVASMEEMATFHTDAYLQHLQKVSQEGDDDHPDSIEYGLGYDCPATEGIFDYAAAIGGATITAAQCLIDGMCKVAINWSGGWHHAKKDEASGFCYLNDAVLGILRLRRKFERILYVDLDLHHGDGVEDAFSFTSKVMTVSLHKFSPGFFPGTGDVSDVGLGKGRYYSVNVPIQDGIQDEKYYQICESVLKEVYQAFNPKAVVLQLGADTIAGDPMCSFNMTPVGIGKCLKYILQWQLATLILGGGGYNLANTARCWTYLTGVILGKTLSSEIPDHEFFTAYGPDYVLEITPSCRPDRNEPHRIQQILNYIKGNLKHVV
Chain of recombinant human HDAC1 (Q13547 whole entry): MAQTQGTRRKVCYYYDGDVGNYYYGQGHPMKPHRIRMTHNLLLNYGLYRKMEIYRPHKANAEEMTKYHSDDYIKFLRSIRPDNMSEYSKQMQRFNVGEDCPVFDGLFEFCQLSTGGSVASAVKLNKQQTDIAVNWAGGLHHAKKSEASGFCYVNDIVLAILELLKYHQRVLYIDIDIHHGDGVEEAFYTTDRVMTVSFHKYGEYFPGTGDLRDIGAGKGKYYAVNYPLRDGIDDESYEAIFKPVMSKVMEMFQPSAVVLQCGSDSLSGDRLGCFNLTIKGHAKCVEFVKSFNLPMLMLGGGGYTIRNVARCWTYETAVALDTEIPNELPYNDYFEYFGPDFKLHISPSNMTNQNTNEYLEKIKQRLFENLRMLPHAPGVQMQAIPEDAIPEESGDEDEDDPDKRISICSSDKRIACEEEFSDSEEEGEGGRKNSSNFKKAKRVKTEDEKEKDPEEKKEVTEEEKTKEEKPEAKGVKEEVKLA
Chain of HDAC4 (P56524 whole entry): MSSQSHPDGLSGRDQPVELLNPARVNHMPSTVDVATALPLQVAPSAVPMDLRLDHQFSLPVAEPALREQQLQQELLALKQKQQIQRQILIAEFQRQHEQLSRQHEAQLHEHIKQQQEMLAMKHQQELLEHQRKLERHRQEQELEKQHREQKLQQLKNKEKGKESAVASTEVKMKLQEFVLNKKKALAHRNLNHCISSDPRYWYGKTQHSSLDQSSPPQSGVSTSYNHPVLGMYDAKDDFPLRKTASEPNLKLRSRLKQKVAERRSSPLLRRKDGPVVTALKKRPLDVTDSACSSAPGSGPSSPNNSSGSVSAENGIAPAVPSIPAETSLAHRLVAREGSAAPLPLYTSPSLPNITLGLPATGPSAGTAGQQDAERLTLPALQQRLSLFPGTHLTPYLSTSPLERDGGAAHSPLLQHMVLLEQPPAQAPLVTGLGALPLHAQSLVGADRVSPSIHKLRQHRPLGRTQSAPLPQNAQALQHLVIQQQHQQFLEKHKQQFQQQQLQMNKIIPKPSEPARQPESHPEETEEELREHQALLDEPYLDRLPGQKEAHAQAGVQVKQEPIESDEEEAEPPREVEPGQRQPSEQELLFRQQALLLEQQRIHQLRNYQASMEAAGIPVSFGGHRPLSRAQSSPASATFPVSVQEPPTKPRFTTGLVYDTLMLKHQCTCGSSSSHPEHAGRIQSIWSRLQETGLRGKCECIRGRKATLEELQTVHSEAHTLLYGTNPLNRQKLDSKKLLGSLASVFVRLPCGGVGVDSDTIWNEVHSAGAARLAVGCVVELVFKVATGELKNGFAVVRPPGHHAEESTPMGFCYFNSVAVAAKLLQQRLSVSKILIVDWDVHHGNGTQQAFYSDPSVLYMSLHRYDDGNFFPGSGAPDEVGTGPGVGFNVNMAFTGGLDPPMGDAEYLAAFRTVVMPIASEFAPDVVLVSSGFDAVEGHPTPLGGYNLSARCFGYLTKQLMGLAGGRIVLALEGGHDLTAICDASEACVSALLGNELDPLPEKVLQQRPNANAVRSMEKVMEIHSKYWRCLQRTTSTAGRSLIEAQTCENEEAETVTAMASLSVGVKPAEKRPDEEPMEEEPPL
Chain of HDAC11 (Q96DB2 whole entry): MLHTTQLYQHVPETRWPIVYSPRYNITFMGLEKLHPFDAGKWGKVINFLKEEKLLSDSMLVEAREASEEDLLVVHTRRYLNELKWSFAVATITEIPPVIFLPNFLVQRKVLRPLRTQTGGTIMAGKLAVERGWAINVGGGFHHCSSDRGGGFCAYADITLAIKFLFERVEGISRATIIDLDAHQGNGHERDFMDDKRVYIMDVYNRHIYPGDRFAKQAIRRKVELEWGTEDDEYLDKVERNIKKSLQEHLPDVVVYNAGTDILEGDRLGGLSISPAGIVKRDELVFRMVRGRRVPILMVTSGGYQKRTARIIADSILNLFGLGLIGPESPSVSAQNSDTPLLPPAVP
Chain of HDAC9 (Q9UKV0 whole entry): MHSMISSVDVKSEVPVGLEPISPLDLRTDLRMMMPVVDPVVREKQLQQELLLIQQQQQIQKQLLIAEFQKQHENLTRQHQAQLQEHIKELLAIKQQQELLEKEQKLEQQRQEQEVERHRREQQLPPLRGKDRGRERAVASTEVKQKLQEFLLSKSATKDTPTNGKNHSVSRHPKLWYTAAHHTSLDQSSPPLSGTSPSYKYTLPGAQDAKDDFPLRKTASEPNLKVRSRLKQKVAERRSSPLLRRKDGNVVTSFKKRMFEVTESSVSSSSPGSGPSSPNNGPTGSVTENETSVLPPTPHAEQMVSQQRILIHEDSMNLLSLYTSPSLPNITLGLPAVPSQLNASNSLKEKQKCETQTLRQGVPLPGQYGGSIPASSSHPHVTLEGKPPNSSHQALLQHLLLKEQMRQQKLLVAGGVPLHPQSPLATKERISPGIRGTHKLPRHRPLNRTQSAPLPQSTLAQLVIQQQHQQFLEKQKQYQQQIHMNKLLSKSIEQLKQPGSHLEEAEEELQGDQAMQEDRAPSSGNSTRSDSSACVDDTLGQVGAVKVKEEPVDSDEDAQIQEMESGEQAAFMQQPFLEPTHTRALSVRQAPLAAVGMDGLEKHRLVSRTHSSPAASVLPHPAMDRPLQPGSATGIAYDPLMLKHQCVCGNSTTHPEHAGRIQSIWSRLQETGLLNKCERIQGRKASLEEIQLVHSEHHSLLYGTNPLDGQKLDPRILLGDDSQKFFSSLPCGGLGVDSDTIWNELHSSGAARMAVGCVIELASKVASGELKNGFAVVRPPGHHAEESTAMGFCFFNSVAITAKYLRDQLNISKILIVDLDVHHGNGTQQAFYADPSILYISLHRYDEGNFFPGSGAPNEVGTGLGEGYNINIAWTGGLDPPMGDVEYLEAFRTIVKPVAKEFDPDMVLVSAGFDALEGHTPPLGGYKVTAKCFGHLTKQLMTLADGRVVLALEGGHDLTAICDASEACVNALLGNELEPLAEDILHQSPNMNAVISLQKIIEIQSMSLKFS
Chain of HDAC2 (Q92769 whole entry, canonical isoform): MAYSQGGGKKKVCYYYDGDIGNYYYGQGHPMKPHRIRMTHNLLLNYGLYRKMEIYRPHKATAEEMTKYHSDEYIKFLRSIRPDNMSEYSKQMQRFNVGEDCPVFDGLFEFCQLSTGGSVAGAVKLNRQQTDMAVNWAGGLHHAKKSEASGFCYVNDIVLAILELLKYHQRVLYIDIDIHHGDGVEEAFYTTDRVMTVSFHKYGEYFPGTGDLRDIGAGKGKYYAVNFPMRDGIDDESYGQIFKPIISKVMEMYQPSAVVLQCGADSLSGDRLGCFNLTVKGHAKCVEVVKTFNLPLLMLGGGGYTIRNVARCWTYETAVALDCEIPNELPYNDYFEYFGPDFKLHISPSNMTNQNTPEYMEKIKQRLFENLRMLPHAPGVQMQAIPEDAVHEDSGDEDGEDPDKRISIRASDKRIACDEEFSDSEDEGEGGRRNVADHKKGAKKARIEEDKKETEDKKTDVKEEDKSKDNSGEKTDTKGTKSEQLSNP
Chain of HDAC3 (O15379 whole entry): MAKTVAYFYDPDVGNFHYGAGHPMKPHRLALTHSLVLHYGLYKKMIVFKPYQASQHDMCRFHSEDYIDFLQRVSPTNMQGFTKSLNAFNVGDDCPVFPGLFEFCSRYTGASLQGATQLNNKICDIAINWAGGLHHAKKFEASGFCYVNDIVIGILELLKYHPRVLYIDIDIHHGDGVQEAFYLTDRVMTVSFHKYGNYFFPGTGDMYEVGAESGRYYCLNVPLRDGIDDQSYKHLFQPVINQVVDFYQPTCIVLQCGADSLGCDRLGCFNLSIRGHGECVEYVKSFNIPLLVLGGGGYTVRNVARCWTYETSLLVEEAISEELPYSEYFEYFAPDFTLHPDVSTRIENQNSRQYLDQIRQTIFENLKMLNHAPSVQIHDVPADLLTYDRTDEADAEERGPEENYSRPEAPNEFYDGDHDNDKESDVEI
Chain of HDAC3 (Q9Y618 395-489 partner): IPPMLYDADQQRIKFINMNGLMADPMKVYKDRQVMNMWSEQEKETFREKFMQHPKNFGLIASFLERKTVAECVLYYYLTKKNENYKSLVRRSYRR
Chain of HDAC10 (Q969S8 whole entry): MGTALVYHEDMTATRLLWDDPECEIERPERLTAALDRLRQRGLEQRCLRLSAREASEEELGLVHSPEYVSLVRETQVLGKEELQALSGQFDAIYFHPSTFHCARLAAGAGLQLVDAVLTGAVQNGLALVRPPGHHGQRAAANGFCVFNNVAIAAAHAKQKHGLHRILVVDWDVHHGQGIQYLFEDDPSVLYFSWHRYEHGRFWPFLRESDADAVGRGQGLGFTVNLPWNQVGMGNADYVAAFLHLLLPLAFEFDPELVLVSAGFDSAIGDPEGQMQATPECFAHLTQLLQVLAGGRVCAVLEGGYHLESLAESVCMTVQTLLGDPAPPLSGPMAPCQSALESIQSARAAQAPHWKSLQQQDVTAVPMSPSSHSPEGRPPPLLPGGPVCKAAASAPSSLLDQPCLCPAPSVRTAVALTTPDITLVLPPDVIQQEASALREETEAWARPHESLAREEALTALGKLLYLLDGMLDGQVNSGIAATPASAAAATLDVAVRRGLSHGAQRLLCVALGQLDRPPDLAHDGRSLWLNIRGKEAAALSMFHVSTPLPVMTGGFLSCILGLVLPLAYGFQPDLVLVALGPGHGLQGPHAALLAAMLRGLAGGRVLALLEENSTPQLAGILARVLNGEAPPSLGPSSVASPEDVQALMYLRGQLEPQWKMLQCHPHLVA

Row | Compound | IC50 (recombinant human HDAC6) [µM] | residual percentage in HUMAN S9 FRACTION [1] [%] | IC50 (HDAC2) [µM] | residual percentage in HUMAN PLASMA [2] [%] | IC50 (HDAC11) [µM] | IC50 (HDAC3) [µM] | IC50 (HDAC9) [µM] | IC50 (HDAC8) [µM] | IC50 (HDAC7) [µM] | residual percentage in RAT S9 FRACTION [4] [%] | IC50 (HDAC4) [µM] | IC50 (HDAC10) [µM] | IC50 (recombinant human HDAC1) [µM] | residual percentage in RAT PLASMA (Stability in rat plasma) [%] | IC50 (HDAC5) [µM] | fold induction at 1 µM [3]
1 | Cn1c(N)nc2cc(-c3cn(Cc4ccc(-c5nnc(C(F)F)o5)cn4)nn3)ccc21 [Compd. 17, 5-(1-((5-(5-(difluoromethyl)-1,3,4-oxadiazol-2-yl)pyridin-2-yl)methyl)-1H-1,2,3-triazol-4-yl)-1-methyl-1H-benzo[d]imidazol-2-amine] | 0.008 | 84 | > 30 | 82 | > 30 | > 30 | > 30 | > 200 | > 30 | 99 | > 30 | > 30 | > 200 | 85 | > 30 | 32
2 | FC(F)c1nnc(-c2ccc(Cn3cc(-c4ccc5nc(Cl)[nH]c5c4)nn3)nc2)o1 [Compd. 9, 2-(6-((4-(2-chloro-1H-benzo[d]imidazol-6-yl)-1H-1,2,3-triazol-1-yl)methyl)pyridin-3-yl)-5-(difluoromethyl)-1,3,4-oxadiazole] | 0.015 | 83 | > 30 | 59 | > 30 | > 30 | 0.971 | 1.41 | 3.08 | 90 | 5.01 | > 30 | > 200 | 87 | 1.51 | 17
3 | Cn1c(N)nc2cc(-c3cn(Cc4ccc(-c5nnc(C(F)F)o5)cc4)nn3)ccc21 [Compd. 23, 5-(1-(4-(5-(difluoromethyl)-1,3,4-oxadiazol-2-yl)benzyl)-1H-1,2,3-triazol-4-yl)-1-methyl-1H-benzo[d]imidazol-2-amine] | 0.013 | 88 | > 30 | 88 | > 30 | 26.5 | > 30 | 0.565 | > 30 | 96 | > 30 | > 30 | 30.3 | 92 | > 30 | 31

Continued, in another order:

Row | IC50 (recombinant human HDAC6) [µM] | residual percentage in HUMAN S9 FRACTION [1] [%] | IC50 (HDAC2) [µM] | residual percentage in HUMAN PLASMA [2] [%] | IC50 (HDAC11) [µM] | IC50 (HDAC3) [µM] | IC50 (HDAC9) [µM] | IC50 (HDAC8) [µM] | IC50 (HDAC7) [µM] | residual percentage in RAT S9 FRACTION [4] [%] | IC50 (HDAC4) [µM] | IC50 (HDAC10) [µM] | IC50 (recombinant human HDAC1) [µM] | residual percentage in RAT PLASMA (Stability in rat plasma) [%] | IC50 (HDAC5) [µM] | Compound | fold induction at 1 µM [3]
4 | 0.029 | 86 | > 30 | 75 | > 30 | > 30 | > 30 | > 200 | > 30 | 88 | > 30 | > 30 | > 200 | 84 | > 30 | O=C(Nc1cccc(-c2cn(Cc3ccc(-c4nnc(C(F)F)o4)c(F)c3)nn2)c1)N1CCOCC1 [compound 16, N-(3-(1-(4-(5-(difluoromethyl)-1,3,4-oxadiazol-2-yl)-3-fluorobenzyl)-1H-1,2,3-triazol-4-yl)phenyl)morpholine-4-carboxamide] | 19
5 | 0.013 | 99 | > 30 | 93 | > 30 | > 30 | > 30 | > 200 | > 30 | 93 | > 30 | > 30 | > 200 | 93 | > 30 | O=C(Nc1cccc(-c2cn(Cc3ccc(-c4nnc(C(F)F)o4)cn3)nn2)c1)N1CCOCC1 [compound 6, N-(3-(1-((5-(5-(difluoromethyl)-1,3,4-oxadiazol-2-yl)pyridin-2-yl)methyl)-1H-1,2,3-triazol-4-yl)phenyl)morpholine-4-carboxamide] | 19
6 | 0.012 | 92 | > 30 | 74 | > 30 | > 30 | > 30 | > 200 | > 30 | 93 | > 30 | > 30 | > 200 | 70 | > 30 | Nc1ccc(-c2cn(Cc3ccc(-c4nnc(C(F)F)o4)cn3)nn2)cn1 [compound 5, 5-(1-((5-(5-(difluoromethyl)-1,3,4-oxadiazol-2-yl)pyridin-2-yl)methyl)-1H-1,2,3-triazol-4-yl)pyridin-2-amine] | 19

Source: patent US20230286970A1, “NOVEL OXADIAZOLE-BASED SELECTIVE HDAC6 INHIBITORS” (ITALFARMACO S.P.A., priority 2020, published 2023)
